# Source: PMC12668304, “A Triple Threat Against Ovarian Cancer: Os(II)‐Pt(IV)‐Ceritinib Conjugates for Photodynamic Therapy, Chemotherapy, and Immunogenic Cell Death Induction” (Angewandte Chemie (International Ed. in English), 2025)
# Like-named read-outs stand apart in the source and are kept apart here.
# Tests used:
# A549 cells = experiment: (Photo-)cytotoxicity on 2D cell monolayers, resazurin assay; assay type: cell-based; conditions: A549, normoxic, dark, 4 h exposure, total 48 h incubation; read-out: IC50 Dark
# Procedure: (§1) The 2D cytotoxicity and phototoxicity profiles of Os‐Pt‐Cer and controls, were evaluated in a panel of cancerous cell lines, including A2780 (ovarian carcinoma), A549 (non‐small cell lung carcinoma), and MCA205 (murine fibrosarcoma), as well as a non‐cancerous retinal pigment epithelial cell line (RPE‐1). Cells were treated with the compounds (0.003–100 µM) for 4 h, either kept in the dark or irradiated at 670 nm (13.5 J cm^− ^2) (Table S4 and Figure S22) or 740 nm (12.6 J cm^− ^2) and viability was assessed 44 h post‐treatment. To verify robustness, the incubation was extended to 72 h. […]
# (§2) Human ovarian cancer (A2780) cells and mouse fibrosarcoma cells (MCA205) were cultured in RPMI media. Retinal pigment epithelium (RPE -1) cells were cultured in DMEM/F -12 medium. Lung cancer cells (A549) were cultured in F -12K medium. These cell lines were complemented with 10% of fetal bovine serum, 100 U/mL penicillin -streptomycin mixture, and maintained in a humidified atmosphere […]
# (§3) (Photo-)cytotoxicity on 2D cell monolayers
# (§4) The cytotoxicity of the compounds was assessed by measuring cell viability using a resazurin assay.
# (§5) The cells were seeded in triplicates in 96 well plates with a density of 10 4 cells per well in 100 μL of media. After 24 h, the medium was removed, and the cells were treated with increasing concentrations (0.003 → 100 µM) of the compounds diluted in cell media , achieving a total volume of 100 μL/well.
# (§6) The cells were incubated with the compound for 4 h (final incubation time 48 h) or 24 h (final incubation time 72 h). After this time, the media was removed and replaced with 100 μL of fresh medium. For the phototoxicity studies, the cells were exposed to light with an Atlas Photonics LUMOS BIO irradiation system. Each well was constantly irradiated at 670 nm (60 min, 13.50 J·cm-2) or 740 nm (60 min, 12.60 J·cm-2). During the irradiation, the temperature of the plate was maintained at 37 °C. The cells were grown in the incubator for an additional 44 or 48 h, respectively. For the determination of the dark cytotoxicity, the cells were not irradiated and after the medium exchange directly incubated for 44 h.
# (§7) After this time, the medium was replaced with fresh medium containing resazurin (0.2 mg/mL). After […]
# (§8) 4 h of incubation, the conversion of resazurin into resorufin was determined upon excitation at 540 nm and measurement of its emission at 590 nm using a Cytation 5 Imaging Reader from BioTek. The obtained data was analysed with the GraphPad Prism software […]
# (§9) After 24 h of incubation at 37 °C, 5% CO 2, plates were read using a SpectraMaxM2 Microplate Reader ( λexc = 540 nm; λread = 590 nm). Fluorescence data were normalised, and data were fitted using GraphPad Prism Software, and IC 50 was calculated by non - linear regression. Changes in the size and shape of MCTS were monitored every 24 h using Cytation 5 Imaging Reader from BioTek, objective x4.
# (§10) Intracellular distribution by confocal fluorescence microscopy
# (§11) 10^4 cells/well (A2780 cells) were seeded in complete medium (RPMI) in µ -slide 8 well (Ibidi) (100 µl/well) and left for 24 h to attach to the bottom. Then, the culture medium was removed , and 100 µl of solution of the corresponding complexes (5 µM) was added. The complexes were incubated with the cells for 4 hours. Thereafter, the medium was removed and replaced by RPMI without phenol red , and Hoechst and MitoTracker Green were added at a final concentration of 1 µg/mL. They were incubated with the cells for 30 min in the dark at 37 °C. Images were collected in a sequential mode in a Leica TCS SP8 confocal microscope with a 60x oil immers ion objective, a line average of 4, and a format of […]
# (§12) (MTG)→ 500 -550nm, and 488 nm (complexes)→ 680 -730 nm. The confocal pinhole was 1 Airy unit.
# (§13) Images were analysed with LAS X Flim FCS software.
# (§14) Intracellular distribution by ICP -MS
# RPE‐1 cells = experiment: as above; assay type: cell-based; conditions: for IC50: RPE‐1, normoxic, 4 h exposure
# Procedure: as §1, §2, §3, §4, §5, §6, §7, §8, §9, §10, §11, §12, §13, §14
# A2780 cells = experiment: as above; assay type: cell-based, human; conditions: for IC50: A2780, normoxic, 4 h exposure
# Procedure: as §1, §2, §3, §4, §5, §6, §7, §8, §9, §10, §11, §12, §13, §14
# MCA205 cells = experiment: as above; assay type: cell-based, mouse; conditions: MCA205, normoxic, dark, 4 h exposure, total 48 h incubation; read-out: IC50 Dark
# Procedure: as §1, §2, §3, §4, §5, §6, §7, §8, §9, §10, §11, §12, §13, §14
# A2780 MCTSs = experiment: (Photo-)cytotoxicity on 3D multicellular tumour spheroids, resazurin assay; assay type: cell-based, human; conditions: normoxic, dark, one week of incubation, read-out: IC50 Dark
# Procedure: A2780 spheroids (ca. 500 µm in diameter) were treated with increasing concentrations of the compounds and after 24 h of incubation, the medium was replaced with fresh medium, and the cells were either kept in the dark or irradiated for 1 h at 740 nm. Images of the spheroids were taken every 24 h for 3 days.
# Additionally, the phototoxicity was tested via a fluorometric resazurin assay in A2780 MCTSs (Table 3). […] (Figure S29). […] This can be attributed to the different biological endpoints and time frames of the assays: spheroid diameter was monitored over 72 h, whereas resazurin measurements were performed after 7 days, potentially capturing delayed cytotoxic effects due to differences in drug cellular uptake.
# 4 h of incubation, the conversion of resazurin into resorufin was determined upon excitation at 540 nm and measurement of its emission at 590 nm using a Cytation 5 Imaging Reader from BioTek. The obtained data was analysed with the GraphPad Prism software
# MCTS were cultured using ultra-low attachment 96 wells plates from Corning (Fisher Scientific 15329740). A2780 cells were seeded at a density of 1,500 cells per well in 100 μL of RPMI. Within 2-3 days, MCTSs have approximately 500 μm of diameter. The formation as well as integrity and diameter of the MCTSs were monitored by microscopy.
# (Photo-)cytotoxicity on 3D multicellular tumor spheroids (MCTS)
# After 2 days of growing at 37 °C in 5% CO2, the medium was removed, and MCTSs were treated by adding 100 μL of the medium in the well with increasing concentrations of compounds (Os-Pt-Cer, Os, Ceritinib, Oxaliplatin, cisplatin, and Ce6 as additional control). For untreated reference MCTSs, only half of the medium was added with fresh medium. After 24 hours, the MCTSs were divided into two identical groups. The first group was strictly kept in the dark. The second group was irradiated at 740 nm for 1 h (12.60 J·cm-2) using a LUMOS-BIO photoreactor (Atlas Photonics). After the irradiation, all groups were incubated additional 7 days. Thereafter, medium was replaced with 100 μL of fresh medium containing resazurin (0.2 mg/mL). After 24 h of incubation at 37 °C, 5% CO 2, plates were read using a SpectraMaxM2 Microplate Reader ( λexc = 540 nm; λread = 590 nm). Fluorescence data were normalised, and data were fitted using GraphPad Prism Software, and IC 50 was calculated by non - linear regression. Changes in the size and shape of MCTS were monitored every 24 h using Cytation 5 Imaging Reader from BioTek, objective x4. […]
# Figure S29. Cell viability graphs after one week of incubation. Studied compounds were incubated for 24 h, thereafter the medium was renovated. For PDT, plates were irradiated at 740 nm for 1h using a LUMOS-BIO photoreactor (Atlas Photonics). For both PDT and regular cytotoxicity, cells were incubated for one week at 37 °C, 5 % CO2. The medium was renovated each two days. Then, the medium was replaced with 100 µL of fresh medium containing 0.2 mg/mL resazurin (Acros Organics). After 24 h of incubation, the fluorescence signal of the resazurin product was recorded (λexc = 540 nm; λem = 590 nm) using a Cytation 5 Cell Imaging Multi-Mode Reader (Biotek - Agilent).
# (1 picture or pasted object on this page, not shown here)
# [1] = parameters: method as in not given; conditions: standard, acetonitrile; ref not given; cited from earlier work
# [2] = dark, total 48 h incubation, read-out: IC50 Dark
# [3] = Homo sapiens, 740 nm (60 min, 12.60 J·cm^−2), total 48 h, read-out: IC50 Irrad. 740 nm
# [4] = Homo sapiens, dark, total 48 h incubation, read-out: IC50 Dark
structure (smiles),measurement,setting,value
N.N.[Cl][Pt][Cl] [Cisplatin],IC50,A549 cells,1.11 ± 0.33 µM
same,IC50,RPE‐1 cells; [2],15.2 ± 0.7 µM
same,IC50,A2780 cells; [2],1.92 ± 0.4 µM
same,IC50,MCA205 cells,0.72 ± 0.2 µM
same,IC50,A2780 MCTSs,2 ± 0.4 µM
"C=CC1=C(C)c2cc3[nH]c(cc4nc(cc5[nH]c(cc1n2)c(C)c5CCC(=O)O)C(CCC(=O)O)=C4C)c(C)c3C=C [PPIX, Protoporphyrin]",IC50,RPE‐1 cells; [3],41.6 ± 0.3 µM
same,IC50,RPE‐1 cells; [4],> 100 µM
same,PI (IC50 dark/IC50 irradiation 740 nm),RPE‐1 cells; RPE‐1,≥2
same,PI (IC50 dark/IC50 irradiation 740 nm),A2780 cells; A2780,≥6
same,IC50,A2780 cells; [3],17.3 ± 0.01 µM
same,IC50,A2780 cells; [4],> 100 µM
"[Ru+2].c1ccc(-c2ccccn2)nc1.c1ccc(-c2ccccn2)nc1.c1ccc(-c2ccccn2)nc1 [Ru(bpy)3, Tris(2,2'-bipyridyl) ruthenium (II)]",Quantum yield,[1],0.077
same,Singlet oxygen quantum yield,[1],0.77
